{"source": "ChEMBL document CHEMBL5360655", "about": "“Design, Synthesis, and Biological Evaluation of Novel P2X7 Receptor Antagonists for the Treatment of Septic Acute Kidney Injury” (J Med Chem, 2023)", "key": {"[1]": {"molecular_target": "T1, P2X purinoceptor 7 (Homo sapiens) (UniProt Q99572)", "T1 sequence (whole entry)": "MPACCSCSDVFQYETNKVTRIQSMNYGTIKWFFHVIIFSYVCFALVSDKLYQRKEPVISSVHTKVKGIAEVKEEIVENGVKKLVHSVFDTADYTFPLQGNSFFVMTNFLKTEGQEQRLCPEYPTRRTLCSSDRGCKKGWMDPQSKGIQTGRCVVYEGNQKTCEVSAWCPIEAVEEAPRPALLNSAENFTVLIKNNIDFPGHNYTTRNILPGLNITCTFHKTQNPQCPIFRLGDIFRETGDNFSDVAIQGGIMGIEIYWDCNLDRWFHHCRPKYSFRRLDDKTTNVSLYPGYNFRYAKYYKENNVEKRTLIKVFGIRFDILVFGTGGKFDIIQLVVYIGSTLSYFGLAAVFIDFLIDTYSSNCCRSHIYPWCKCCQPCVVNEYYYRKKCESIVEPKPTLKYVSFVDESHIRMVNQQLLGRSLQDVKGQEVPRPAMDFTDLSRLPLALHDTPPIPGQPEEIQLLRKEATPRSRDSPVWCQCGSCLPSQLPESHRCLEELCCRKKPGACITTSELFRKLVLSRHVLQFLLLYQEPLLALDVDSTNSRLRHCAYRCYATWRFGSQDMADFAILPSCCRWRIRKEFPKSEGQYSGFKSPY", "assay": "Antagonist activity at human P2X7 receptor expressed in HEK293 cells assessed as inhibition of ATP-induced receptor pore formation at 1 uM by propidium iodide dye uptake based fluorescence analysis", "type": "cell-based", "conditions": "filed as antagonist"}, "[2]": {"molecular_target": "T2, P2X purinoceptor 7 (Mus musculus) (UniProt Q9Z1M0)", "T2 sequence (whole entry)": "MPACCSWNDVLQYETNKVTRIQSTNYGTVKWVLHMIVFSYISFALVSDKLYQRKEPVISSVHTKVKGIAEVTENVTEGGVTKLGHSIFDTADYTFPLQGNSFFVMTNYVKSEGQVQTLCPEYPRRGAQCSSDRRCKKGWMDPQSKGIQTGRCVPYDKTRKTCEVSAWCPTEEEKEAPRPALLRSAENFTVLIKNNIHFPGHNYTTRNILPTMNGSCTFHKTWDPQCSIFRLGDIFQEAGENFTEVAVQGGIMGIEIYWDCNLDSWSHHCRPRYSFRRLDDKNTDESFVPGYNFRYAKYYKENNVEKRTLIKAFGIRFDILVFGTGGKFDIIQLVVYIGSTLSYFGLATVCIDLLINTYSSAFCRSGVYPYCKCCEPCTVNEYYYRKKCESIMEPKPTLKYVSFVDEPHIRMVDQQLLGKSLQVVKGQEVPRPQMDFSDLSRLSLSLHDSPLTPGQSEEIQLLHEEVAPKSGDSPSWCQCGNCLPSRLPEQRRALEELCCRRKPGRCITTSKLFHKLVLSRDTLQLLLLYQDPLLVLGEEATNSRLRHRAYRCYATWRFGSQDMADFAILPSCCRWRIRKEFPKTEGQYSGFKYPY", "assay": "Antagonist activity at mouse P2X7 receptor expressed in HEK293 cells assessed as inhibition of ATP-induced receptor pore formation at 200 nM by propidium iodide dye uptake based fluorescence analysis", "type": "cell-based", "conditions": "filed as antagonist"}, "[3]": {"assay": "Half life in mouse liver microsomes", "type": "ADME, Microsome"}, "THP-1": {"tested_on": "THP-1", "assay": "Cytotoxicity against human THP-1 cells assessed as effect on cell viability at 1 to 4 uM incubated for 2 hrs by CCK8 assay", "type": "toxicity, cell-based", "conditions": "thp-1, 2 h, dose 1-4 µM"}, "[4]": {"assay": "Clearance in BALB/c mouse at 10 mg/kg, iv measured for 24 hrs by LC-MS/MS analysis", "type": "ADME, organism-based", "conditions": "in vivo"}, "[5]": {"assay": "Tmax in BALB/c mouse at 10 mg/kg, po measured for 24 hrs by LC-MS/MS analysis", "type": "ADME, organism-based", "conditions": "in vivo"}, "[6]": {"assay": "Cmax in BALB/c mouse at 10 mg/kg, ip measured for 24 hrs by LC-MS/MS analysis", "type": "ADME, organism-based", "parameters": "dose 10 mg/kg, time 24 hrs, route ip", "conditions": "in vivo"}, "Mus musculus [7]": {"tested_on": "Mus musculus", "assay": "Reno-protective activity against LPS-induced acute kidney injury C57BL/6J mouse model assessed as decrease in serum […] level at 10 mg/kg, ip administered twice at 30 mins prior to LPS challenge and 8 hrs post-LPS challenge and measured at 16 hrs post-LPS challenge", "type": "functional, organism-based", "conditions": "time 16.5 hrs"}, "[8]": {"molecular_target": "T1, P2X purinoceptor 7 (Homo sapiens)", "assay": "Antagonist activity at P2X7 receptor in human THP-1 cells assessed as inhibition of Bz-ATP-evoked channel current at 2 uM by whole-cell patch clamp analysis", "type": "cell-based", "conditions": "filed as antagonist"}, "[9]": {"assay": "Toxicity in C57BL/6J mouse assessed as pathological changes in liver at 20 mg/kg, ip administered twice at 0 hrs and 8 hrs and measured after 16 hrs by Hematoxylin-Eosin staining based analysis", "type": "organism-based", "conditions": "in vivo"}, "[10]": {"assay": "Toxicity in C57BL/6J mouse assessed as pathological changes in lungs at 20 mg/kg, ip administered twice at 0 hrs and 8 hrs and measured after 16 hrs by Hematoxylin-Eosin staining based analysis", "type": "organism-based", "conditions": "in vivo"}, "Mus musculus [11]": {"tested_on": "Mus musculus", "assay": "Reno-protective activity against LPS-induced acute kidney injury C57BL/6J mouse model assessed as decrease in NGAL mRNA expression in kidney at 5 to 20 mg/kg, ip administered twice at 30 mins prior to LPS challenge and 8 hrs post-LPS challenge and measured at 16 hrs post-LPS challenge by RT-qPCR analysis", "type": "functional, organism-based", "conditions": "dose 5-20 mg/kg, time 16.5 hrs"}, "Mus musculus [12]": {"tested_on": "Mus musculus", "assay": "(§1) Reno-protective activity against CLP-induced acute kidney injury C57BL/6J mouse model assessed as decrease in Casp1 gene expression in kidney at 20 mg/kg, ip administered twice at 30 mins prior to CLP operation and 8 hrs post-CLP operation and measured at 16 hrs post-CLP operation by RNA sequencing analysis", "type": "functional, organism-based", "conditions": "time 16.5 hrs"}, "Mus musculus [13]": {"tested_on": "Mus musculus", "assay": "as §1, with “caspase-1 mRNA” for “Casp1 gene”, “RT-qPCR” for “RNA sequencing”", "type": "functional, organism-based", "conditions": "time 16.5 hrs"}, "Mus musculus [14]": {"tested_on": "Mus musculus", "assay": "as §1, with “IL-1 beta mRNA” for “Casp1 gene”, “RT-qPCR” for “RNA sequencing”", "type": "functional, organism-based", "conditions": "time 16.5 hrs"}, "Mus musculus [15]": {"tested_on": "Mus musculus", "assay": "as §1, with “GSDMD mRNA” for “Casp1 gene”, “RT-qPCR” for “RNA sequencing”", "type": "functional, organism-based", "conditions": "time 16.5 hrs"}, "Mus musculus [16]": {"tested_on": "Mus musculus", "assay": "as §1, with “cleaved caspase 1 (p20) protein” for “Casp1 gene”, “western blot” for “RNA sequencing”", "type": "functional, organism-based", "conditions": "time 16.5 hrs"}, "Mus musculus [17]": {"tested_on": "Mus musculus", "assay": "Reno-protective activity against ip dosed LPS-induced acute kidney injury C57BL/6J mouse model assessed as decrease in serum […] level administered twice at 30 mins prior to LPS challenge and 8 hrs post-LPS challenge and measured at 16 hrs post-LPS challenge", "type": "functional", "conditions": "time 16.5 hrs, read-out: MED"}}, "note": "Active and inactive are the calls of the source. The rule behind the calls is not given here."}
{"compound": "CS(=O)(=O)c1ccc(-c2nc(C(=O)NCc3cn(-c4cc(Br)ccn4)nn3)cs2)cc1", "values": [{"measurement": "inhibition", "setting": "[1]", "result": 112, "unit": "%"}, {"measurement": "inhibition", "setting": "[2]", "result": 101, "unit": "%"}, {"measurement": "half-life", "setting": "[3]", "result": "> 2", "unit": "h"}, {"measurement": "Activity", "setting": "THP-1", "result": "Non-Toxic"}, {"measurement": "clearance", "setting": "[4]", "result": 9.83, "unit": "mL/min/kg"}, {"measurement": "Tmax", "setting": "[5]", "result": 1.17, "unit": "h"}, {"measurement": "Cmax", "setting": "[6]", "result": 1070, "unit": "ng/mL"}, {"measurement": "Activity", "setting": "Mus musculus [7]", "result": "Active"}, {"measurement": "inhibition", "setting": "[8]", "result": 56.1, "unit": "%"}, {"measurement": "Activity", "setting": "[9]", "result": "Non-Toxic"}, {"measurement": "Activity", "setting": "[10]", "result": "Non-Toxic"}, {"measurement": "Activity", "setting": "Mus musculus [11]", "result": "Dose-Dependent Effect"}, {"measurement": "Activity", "setting": "Mus musculus [12]", "result": "Active"}, {"measurement": "Activity", "setting": "Mus musculus [13]", "result": "Active"}, {"measurement": "Activity", "setting": "Mus musculus [14]", "result": "Active"}, {"measurement": "Activity", "setting": "Mus musculus [15]", "result": "Active"}, {"measurement": "Activity", "setting": "Mus musculus [16]", "result": "Active"}, {"measurement": "minimal effective dose", "setting": "Mus musculus [17]", "result": 5, "unit": "mg/kg"}]}
